The source of these data is patent publication US20230011571A1, “SMALL MOLECULE FURIN INHIBITORS FOR TREATING INFECTIOUS DISEASES” (BP Asset V, Inc., priority 2019, published 2023).

What all share (assay type): cell-based
The test system of experiment [1] is Chikungunya virus (CHIKV). Kind of experiment: microbe, parasite or virus in culture. Conditions: Chikungunya virus, Vero, 48 h, read-out: Percent viral inhibition CHKV.
The subject of the next experiment is dengue virus (DENV). Nature of the experiment: microbe, parasite or virus in culture. The note with it: Dengue virus, Vero, 120 h, read-out: Percent viral inhibition DENY.
The subject of a further experiment is Marburg virus (MARV). Nature of the experiment: organism not typed. The note with it: Vero, 72 h, read-out: Percent viral inhibition MARV.

Molecules are shown by their SMILES.

What is called inhibition is the share of the control response that was lost under treatment. As for `CCC(=O)NCC1CCN(Cc2cc(Oc3cnc(N4CCN(CCC(C)C(=O)O)CC4)nc3)nc(-c3cc(Cl)cc(Cl)c3)c2)CC1` (stereo not drawn) [Example 59, 4-(4-(5-((6-(3,5-dichlorophenyl)-4-((4-(propionamidomethyl)piperidin-1-yl)methyl)pyridin-2-yl)oxy)pyrimidin-2-yl)piperazin-1-yl)-2-methylbutanoic acid], the figures for the inhibition at 1 µM (in experiment [1]; in the experiment with dengue virus (DENV); in the experiment with Marburg virus (MARV)) were 35.1%, 53.7% and 57.5%, respectively.

As for `CC(=O)NCC1CCN(Cc2cc(Oc3ccc(N4CCN(CCC(=O)O)CC4)nc3)nc(-c3cc(F)cc(Br)c3)c2)CC1` [Example 116], the results for the inhibition at 1 µM (in experiment [1]; in the experiment with dengue virus (DENV); in the experiment on Marburg virus (MARV)) were 10.4%, 6.7% and 4.3%, respectively.

As to `CN1CCN(c2cnc(Oc3cc(CN4CCC(OC5(C(=O)O)CC5)CC4)cc(-c4cc(Cl)cc(Cl)c4)n3)cn2)CC1` [Example 353, 1-((1-((2-(3,5-dichlorophenyl)-6-((5-(4-methylpiperazin-1-yl)pyrazin-2-yl)oxy)pyridin-4-yl)methyl)piperidin-4-yl)oxy)cyclopropanecarboxylic acid], the inhibition at 1 µM in experiment [1] amounted to 16.6%; in the experiment on dengue virus (DENV), 51.3%; with Marburg virus (MARV), 35.4%.

Take `CN1CCN(c2ncc(Oc3cc(CN4CCC(OCC(=O)O)C4)cc(-c4cc(Cl)cc(Cl)c4)n3)cn2)CC1` (stereo not drawn) [Example 128, 2-((1-((2-(3,5-dichlorophenyl)-6-((2-(4-methylpiperazin-1-yl)pyrimidin-5-yl)oxy)pyridin-4-yl)methyl)pyrrolidin-3-yl)oxy)acetic acid]: the inhibition at 1 µM in experiment [1] was 3.67%; with dengue virus (DENV), 7.97%; in the experiment on Marburg virus (MARV), 51.4%.

For `CC(CCN1CCN(c2cnc(Oc3cc(CN4CCC(CCO)CC4)cc(-c4cc(Cl)cc(Cl)c4)n3)cn2)CC1)C(=O)O` (stereo not drawn) [Example 341, 4-(4-(5-((6-(3,5-dichlorophenyl)-4-((4-(2-hydroxyethyl)piperidin-1-yl)methyl)pyridin-2-yl)oxy)pyrazin-2-yl)piperazin-1-yl)-2-methylbutanoic acid], the inhibition at 1 µM turned out to be 29.2% in experiment [1], 31.2% with dengue virus (DENV) and 50.5% in the experiment on Marburg virus (MARV).

`CC(=O)NCC1CCN(Cc2cc(Oc3ccc(N4CC[N+](CCO)(CCO)CC4)nc3)nc(-c3cc(Cl)cc(Cl)c3)c2)CC1` [Example 179, 4-(5-((4-((4-(acetamidomethyl)piperidin-1-yl)methyl)-6-(3,5-dichlorophenyl)pyridin-2-yl)oxy)pyridin-2-yl)-1,1-bis(2-hydroxyethyl) piperazin-1-ium]: the figures for the inhibition at 1 µM (in experiment [1]; in the experiment with dengue virus (DENV); in the experiment with Marburg virus (MARV)) were 5.87%, 42.1% and 27.4%, respectively.

Regarding `O=C(O)CC1CCN(Cc2cc(Oc3cnc(N4CCN(C(CO)CO)CC4)nc3)nc(-c3cc(Cl)cc(Cl)c3)c2)CC1` [Example 23, 2-(1-((2-(3,5-dichlorophenyl)-6-((2-(4-(1,3-dihydroxypropan-2-yl)piperazin-1-yl)pyrimidin-5-yl)oxy)pyridin-4-yl)methyl)piperidin-4-yl)acetic acid], the figures for the inhibition at 1 µM (in experiment [1]; in the experiment on dengue virus (DENV); in the experiment with Marburg virus (MARV)) were 21.6%, 11% and 52.5%, respectively.

Take `CC(C)N1CCN(c2ncc(Oc3cc(CN4CCC(CC(=O)O)CC4)cc(-c4cc(Cl)cc(Cl)c4)n3)cn2)CC1` [Example 235, 2-(1-((2-(3,5-dichlorophenyl)-6-((2-(4-isopropylpiperazin-1-yl)pyrimidin-5-yl)oxy)pyridin-4-yl)methyl)piperidin-4-yl)acetic acid]: the values for the inhibition at 1 µM (in experiment [1]; with dengue virus (DENV); with Marburg virus (MARV)) were 27.4%, 0% and 69.8%, respectively.

Turning to `CN1C[C@@H]2C[C@H]1CN2c1cnc(Oc2cc(CN3CCC(CC(=O)O)CC3)cc(-c3cc(Cl)cc(Cl)c3)n2)cn1` [Example 346, 2-(1-((2-(3,5-dichlorophenyl)-6-((5-((1S,4S)-5-methyl-2,5-diazabicyclo[2.2.1]heptan-2-yl)pyrazin-2-yl)oxy)pyridin-4-yl)methyl)piperidin-4-yl)acetic acid], the inhibition at 1 µM stood at 9.36% in experiment [1], 54.6% with dengue virus (DENV) and 56.8% with Marburg virus (MARV).

For the compound `O=C(O)CC1CCN(Cc2cc(Oc3cnc(N4CCN(C5CC5)CC4)nc3)nc(-c3cc(Cl)cc(Cl)c3)c2)CC1` [Example 233, 2-(1-((2-((2-(4-cyclopropylpiperazin-1-yl)pyrimidin-5-yl)oxy)-6-(3,5-dichlorophenyl)pyridin-4-yl)methyl)piperidin-4-yl)acetic acid], the inhibition at 1 µM came to 16.3% in experiment [1], 55.7% in the experiment with dengue virus (DENV) and 57.1% in the experiment with Marburg virus (MARV).

For `CC(=O)NCC1CCN(Cc2cc(Oc3ccc(N4CCN(CCP(=O)(O)O)CC4)nc3)nc(-c3cc(Cl)cc(Cl)c3)c2)CC1` [Example 30, (2-(4-(5-((4-((4-(acetamidomethyl)piperidin-1-yl)methyl)-6-(3,5-dichlorophenyl)pyridin-2-yl)oxy)pyridin-2-yl)piperazin-1-yl)ethyl)phosphonic acid], the inhibition at 1 µM in experiment [1] turned out to be 10.1%; in the experiment with dengue virus (DENV), 44.3%; in the experiment on Marburg virus (MARV), 15.5%.

For `CN1CCN(c2ccc(Oc3cc(CN4CCC(CCO)CC4)cc(-c4cc(Cl)cc(Cl)c4)n3)nn2)CC1` [Example 360, 2-(1-((2-(3,5-dichlorophenyl)-6-((6-(4-methylpiperazin-1-yl)pyridazin-3-yl)oxy)pyridin-4-yl)methyl)piperidin-4-yl)ethanol], the figures for the inhibition at 1 µM (in experiment [1]; in the experiment with dengue virus (DENV); with Marburg virus (MARV)) were 0%, 2.83% and 3.44%, respectively.

Take `O=C(O)CC1CCN(Cc2cc(Oc3cnc(N4CCN(CCO)CC4)nc3)nc(-c3cc(Cl)cc(Cl)c3)c2)CC1` [Example 306, 2-(1-((2-(3,5-dichlorophenyl)-6-((2-(4-(2-hydroxyethyl)piperazin-1-yl)pyrimidin-5-yl)oxy)pyridin-4-yl)methyl)piperidin-4-yl)acetic acid]: the values for the inhibition at 1 µM (in experiment [1]; with dengue virus (DENV); in the experiment on Marburg virus (MARV)) were 13.6%, 7.27% and 51.1%, respectively.

Consider `CC(=O)NCC1CCN(Cc2cc(Oc3ccc(N4CCN(CC(C)C(=O)O)CC4)nn3)nc(-c3cc(Cl)cc(Cl)c3)c2)CC1` (stereo not drawn) [Example 363, 3-(4-(6-((4-((4-(acetamidomethyl)piperidin-1-yl)methyl)-6-(3,5-dichlorophenyl)pyridin-2-yl)oxy)pyridazin-3-yl)piperazin-1-yl)-2-methylpropanoic acid], for which the figures for the inhibition at 1 µM (in experiment [1]; in the experiment with dengue virus (DENV); in the experiment with Marburg virus (MARV)) were 0%, 0% and 2.8%, respectively.

In the case of `CC(CC1CCN(Cc2cc(Oc3cnc(N4CCCN(C)CC4)cn3)nc(-c3cc(Cl)cc(Cl)c3)c2)CC1)C(=O)O` (stereo not drawn) [Example 351, 3-(1-((2-(3,5-dichlorophenyl)-6-((5-(4-methyl-1,4-diazepan-1-yl)pyrazin-2-yl)oxy)pyridin-4-yl)methyl)piperidin-4-yl)-2-methylpropanoic acid], the inhibition at 1 µM is 22.7% in experiment [1], 42.8% with dengue virus (DENV) and 60.4% in the experiment with Marburg virus (MARV).

For the compound `CC(=O)NCC1CCN(Cc2cc(Oc3ccc(N4CCN(CCC(=O)O)C(C)(C)C4)nc3)nc(-c3cc(Cl)cc(Cl)c3)c2)CC1` [Example 191], the inhibition at 1 µM was found to be 14.2% in experiment [1], 71.2% in the experiment on dengue virus (DENV) and 50.6% in the experiment with Marburg virus (MARV).

With `CN1C[C@@H]2C[C@H]1CN2c1ccc(Oc2cc(CN3CCC(CC(=O)O)CC3)cc(-c3cc(Cl)cc(Cl)c3)n2)nn1` [Example 357, 2-(1-((2-(3,5-dichlorophenyl)-6-((6-((1S,4S)-5-methyl-2,5-diazabicyclo[2.2.1]heptan-2-yl)pyridazin-3-yl)oxy)pyridin-4-yl)methyl)piperidin-4-yl)acetic acid], the inhibition at 1 µM is 38.6% in experiment [1], 61.2% in the experiment with dengue virus (DENV) and 100% with Marburg virus (MARV).

Turning to `CN1CCN(c2cnc(Oc3cc(CN4CCC(CC(=O)O)CC4)cc(-c4cc(Cl)cc(Cl)c4)n3)cn2)CC1` [Example 339, 2-(1-((2-(3,5-dichlorophenyl)-6-((5-(4-methylpiperazin-1-yl)pyrazin-2-yl)oxy)pyridin-4-yl)methyl)piperidin-4-yl)acetic acid], the figures for the inhibition at 1 µM (in experiment [1]; with dengue virus (DENV); in the experiment on Marburg virus (MARV)) were 23.6%, 0% and 52.1%, respectively.

Consider `COC(=O)CCN1CCN(c2ccc(Oc3cc(CN4CCC(CNC(C)=O)CC4)cc(-c4cc(Cl)cc(Cl)c4)n3)cn2)CC1` [Example 385, methyl3-(4-(5-((4-((4-(acetamidomethyl)piperidin-1-yl)methyl)-6-(3,5-dichlorophenyl)pyridin-2-yl)oxy)pyridin-2-yl)piperazin-1-yl)propanoate], for which the values for the inhibition at 1 µM (in experiment [1]; in the experiment on dengue virus (DENV); with Marburg virus (MARV)) were 14.9%, 48.5% and 56.7%, respectively.

`C[C@]1(O)C[C@@H](N2CCN(c3ncc(Oc4cc(CN5CCC(CC(=O)O)CC5)cc(-c5cc(Cl)cc(Cl)c5)n4)cn3)CC2)C1` [Example 24, 2-(1-((2-(3,5-dichlorophenyl)-6-((2-(4-((1s,3s)-3-hydroxy-3-methylcyclobutyl)piperazin-1-yl)pyrimidin-5-yl)oxy)pyridin-4-yl)methyl)piperidin-4-yl)acetic acid]: the inhibition at 1 µM worked out at 34.6% in experiment [1], 25.8% in the experiment with dengue virus (DENV) and 63.1% with Marburg virus (MARV).

In the case of `CNC(=O)NCC1CCN(Cc2cc(Oc3ccc(N4CCN(CCO)CC4)nc3)nc(-c3cc(Cl)cc(Cl)c3)c2)CC1` [Example 40, 1-((1-((2-(3,5-dichlorophenyl)-6-((6-(4-(2-hydroxyethyl)piperazin-1-yl)pyridin-3-yl)oxy)pyridin-4-yl)methyl)piperidin-4-yl)methyl)-3-methylurea], the inhibition at 1 µM in experiment [1] amounted to 3.24%; in the experiment on dengue virus (DENV), 0%; with Marburg virus (MARV), 0%.
